19 compounds from patent US20260265238A1, “COMPOUNDS AND PHARMACEUTICAL COMPOSITIONS THAT DEGRADE SWI/SNF-RELATED MATRIX-ASSOCIATED ACTIN-DEPENDENT REGULATOR OF CHROMATIN SUBFAMILY A” (Plexium, Inc., priority 2023, published 2026) can be followed below.

Each structure is given as a SMILES string. Some results are limits rather than exact numbers.

The target in assay [1] is T1, SMARCA2-HiBiT HeLa cells (protein which is expressed from the SMARCA2 gene) (Homo sapiens, UniProt P51531).
T1 construct: protein which is expressed from the SMARCA2 and SMARCA4 genes; host or cells: HeLa (SMARCA2-HiBiT engineered line)
T1 sequence (P51531 whole entry): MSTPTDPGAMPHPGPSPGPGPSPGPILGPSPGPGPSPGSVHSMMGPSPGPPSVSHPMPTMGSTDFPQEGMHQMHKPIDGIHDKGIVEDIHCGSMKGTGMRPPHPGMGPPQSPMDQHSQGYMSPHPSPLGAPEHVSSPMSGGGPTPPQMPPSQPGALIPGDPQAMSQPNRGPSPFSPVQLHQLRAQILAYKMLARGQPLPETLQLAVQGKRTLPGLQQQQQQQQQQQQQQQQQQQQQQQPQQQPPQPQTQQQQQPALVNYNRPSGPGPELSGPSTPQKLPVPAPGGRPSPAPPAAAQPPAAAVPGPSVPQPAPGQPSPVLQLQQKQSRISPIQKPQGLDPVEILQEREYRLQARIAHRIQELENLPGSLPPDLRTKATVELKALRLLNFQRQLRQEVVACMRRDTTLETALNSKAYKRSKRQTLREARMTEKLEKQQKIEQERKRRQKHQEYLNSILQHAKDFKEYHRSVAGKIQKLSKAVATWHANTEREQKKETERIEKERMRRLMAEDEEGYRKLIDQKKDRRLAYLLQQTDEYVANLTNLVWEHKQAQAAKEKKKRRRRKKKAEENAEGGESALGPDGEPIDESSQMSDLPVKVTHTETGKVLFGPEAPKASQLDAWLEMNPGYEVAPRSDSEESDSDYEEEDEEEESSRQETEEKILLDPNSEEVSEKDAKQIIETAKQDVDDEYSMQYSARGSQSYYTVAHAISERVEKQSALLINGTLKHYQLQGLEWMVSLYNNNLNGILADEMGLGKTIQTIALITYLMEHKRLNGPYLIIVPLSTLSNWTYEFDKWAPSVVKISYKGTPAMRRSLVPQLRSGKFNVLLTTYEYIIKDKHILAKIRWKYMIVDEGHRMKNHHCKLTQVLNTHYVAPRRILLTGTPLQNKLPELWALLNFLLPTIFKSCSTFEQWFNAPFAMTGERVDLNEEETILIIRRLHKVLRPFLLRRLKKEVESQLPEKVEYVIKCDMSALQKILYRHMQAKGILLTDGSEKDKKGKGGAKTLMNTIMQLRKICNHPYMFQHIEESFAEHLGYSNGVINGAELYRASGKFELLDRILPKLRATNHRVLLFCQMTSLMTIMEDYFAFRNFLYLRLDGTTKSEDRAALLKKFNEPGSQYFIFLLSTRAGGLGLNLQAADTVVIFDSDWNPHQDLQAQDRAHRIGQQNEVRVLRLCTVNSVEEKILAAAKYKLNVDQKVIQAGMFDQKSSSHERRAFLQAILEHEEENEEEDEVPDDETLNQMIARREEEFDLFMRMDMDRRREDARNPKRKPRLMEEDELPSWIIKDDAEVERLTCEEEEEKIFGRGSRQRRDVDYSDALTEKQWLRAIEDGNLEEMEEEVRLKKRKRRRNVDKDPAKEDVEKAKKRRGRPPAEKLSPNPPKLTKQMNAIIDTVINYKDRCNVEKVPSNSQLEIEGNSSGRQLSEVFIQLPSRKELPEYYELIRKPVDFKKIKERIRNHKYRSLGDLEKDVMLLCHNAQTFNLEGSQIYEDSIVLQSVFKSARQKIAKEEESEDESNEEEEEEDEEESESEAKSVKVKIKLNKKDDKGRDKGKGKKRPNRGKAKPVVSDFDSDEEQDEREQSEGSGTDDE
As to the kind of experiment: SMARCA2 degradation assay (HiBiT-fusion HeLa cell line, 24 h, luminescence). Format: cell-based. In a few lines:
(§1)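 HeLa cells carrying HiBiT-tagged SMARCA2 or SMARCA4 were seeded at 8,000 cells/well, allowed to attach overnight at 37° C., then given compounds in a 10-point dilution series (typically 10 μM to 300 pM) for 24 hours at 37° C. Remaining tagged protein was read by HiBiT lytic luminescence, and DC50s came from dose-response curves.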

In assay [2] the target is T2, SMARCA4-HiBiT HeLa cells (protein which is expressed from the SMARCA4 gene) (Homo sapiens, UniProt P51532).
T2 construct: protein which is expressed from the SMARCA2 and SMARCA4 genes; host or cells: HeLa (SMARCA4-HiBiT engineered line)
T2 sequence (P51532 whole entry): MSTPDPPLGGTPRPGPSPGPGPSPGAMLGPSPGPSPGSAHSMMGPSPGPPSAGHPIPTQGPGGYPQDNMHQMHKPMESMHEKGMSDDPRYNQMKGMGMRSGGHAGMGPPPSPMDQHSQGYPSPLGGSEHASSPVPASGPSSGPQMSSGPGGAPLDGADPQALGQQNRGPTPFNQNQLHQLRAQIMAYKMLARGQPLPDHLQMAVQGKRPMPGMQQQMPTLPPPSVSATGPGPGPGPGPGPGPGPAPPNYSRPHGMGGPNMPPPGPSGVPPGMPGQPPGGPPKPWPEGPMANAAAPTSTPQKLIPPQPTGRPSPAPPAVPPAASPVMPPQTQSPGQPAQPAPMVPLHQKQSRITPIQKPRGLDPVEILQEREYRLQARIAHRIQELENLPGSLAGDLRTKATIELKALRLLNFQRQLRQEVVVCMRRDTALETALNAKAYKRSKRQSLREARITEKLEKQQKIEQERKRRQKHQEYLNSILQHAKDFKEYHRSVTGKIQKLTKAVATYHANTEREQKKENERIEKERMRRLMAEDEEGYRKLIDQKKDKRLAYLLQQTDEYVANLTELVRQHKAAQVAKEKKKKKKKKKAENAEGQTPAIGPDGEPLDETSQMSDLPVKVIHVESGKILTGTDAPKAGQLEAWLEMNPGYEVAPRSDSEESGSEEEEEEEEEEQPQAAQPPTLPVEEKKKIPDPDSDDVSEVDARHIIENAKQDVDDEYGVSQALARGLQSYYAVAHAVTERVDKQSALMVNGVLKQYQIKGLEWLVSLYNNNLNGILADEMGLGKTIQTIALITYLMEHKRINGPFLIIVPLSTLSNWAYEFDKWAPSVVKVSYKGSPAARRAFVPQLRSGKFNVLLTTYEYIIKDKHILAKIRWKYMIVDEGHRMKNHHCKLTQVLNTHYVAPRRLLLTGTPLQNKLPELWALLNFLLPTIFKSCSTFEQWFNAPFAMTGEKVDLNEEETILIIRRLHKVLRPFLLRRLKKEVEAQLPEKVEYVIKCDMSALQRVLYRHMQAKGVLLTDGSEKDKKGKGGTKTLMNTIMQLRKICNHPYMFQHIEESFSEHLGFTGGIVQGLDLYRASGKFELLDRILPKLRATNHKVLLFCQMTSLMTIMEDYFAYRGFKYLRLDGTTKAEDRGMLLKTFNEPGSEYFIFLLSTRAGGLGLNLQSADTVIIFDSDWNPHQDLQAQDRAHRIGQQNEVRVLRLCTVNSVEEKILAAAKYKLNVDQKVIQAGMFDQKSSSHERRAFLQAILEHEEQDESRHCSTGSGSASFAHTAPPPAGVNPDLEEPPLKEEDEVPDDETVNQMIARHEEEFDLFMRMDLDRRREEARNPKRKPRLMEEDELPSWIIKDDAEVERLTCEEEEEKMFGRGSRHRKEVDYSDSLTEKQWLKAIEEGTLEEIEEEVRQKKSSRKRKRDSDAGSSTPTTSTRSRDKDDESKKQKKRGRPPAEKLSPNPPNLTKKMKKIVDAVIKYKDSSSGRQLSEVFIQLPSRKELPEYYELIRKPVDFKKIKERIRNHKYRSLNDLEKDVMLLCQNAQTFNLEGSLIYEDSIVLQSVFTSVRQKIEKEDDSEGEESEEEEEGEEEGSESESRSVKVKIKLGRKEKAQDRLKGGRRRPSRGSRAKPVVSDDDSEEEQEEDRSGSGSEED
As to the kind of experiment: SMARCA4 degradation assay (HiBiT-fusion HeLa cell line, 24 h, luminescence). Format: cell-based. In a few lines:
as §1
In general terms: HiBiT is a short tag that completes a luciferase, so light tracks the accessible tagged protein.

Consider `CC[C@H](C)NCC#Cc1nccc(N2CCCN(c3cc(-c4ccccc4O)nnc3N)CC2)n1` [Compound P-257, o-{5-[4-(2-{3-[(S)-1-methylpropylamino]-1-propynyl}-4-pyrimidinyl)-1,4-diazepan-1-yl]-6-amino-3-pyridazinyl}phenol], for which the DC50 in assay [1] and in assay [2] was 50 to 500 nM each time. Further, the “SMARCA2 % Degradation @ 1 μM” value in assay [1] (@ 1 μM) was “+++ (+++=>70%)”. Moreover, in assay [2] (@ 1 μM), the inhibition at 1 µM fell in the range of 30 to 70%.
On to `C[C@@H]1CCN(c2cc(-c3ccccc3O)nnc2N)CCN1c1ccnc(C#CC2CCC2)c1` [Compound P-388, 0-(5-{(R)-4-[2-(2-cyclobutylethynyl)-4-pyridyl]-5-methyl-1,4-diazepan-1-yl}-6-amino-3-pyridazinyl)phenol], for which the half-maximal degradation concentration (DC50) lay in the range of 50 to 500 nM in assay [1] and 500 to 5000 nM in assay [2]. Also, in assay [1] (1 μM), the “SMARCA2 % Degradation @ 1 μM” value is “++ (++=30-70%)”. The compound also returned an inhibition at 1 µM in assay [2] (1 μM) of 30 to 70%.
In the case of `CC(C)(O)C#Cc1nccc(N2CCCN(c3cc(-c4ccccc4O)nnc3N)CC2)n1` [Compound P-341, 4-(4-{4-[3-amino-6-(0-hydroxyphenyl)-4-pyridaziny1]-1,4-diazepan-1-yl}-2-pyrimidinyl)-2-methyl-3-butyn-2-ol], the half-maximal degradation concentration (DC50) in assay [1] and in assay [2] was 500 to 5000 nM in each case. Besides, in assay [1] (@ 1 μM), the “SMARCA2 % Degradation @ 1 μM” value is “++ (++=30-70%)”. Moreover, the inhibition at 1 µM in assay [2] (@ 1 μM) is < 30%.
Regarding `Nc1nnc(-c2ccccc2O)cc1N1CCCN(c2ccnc(C#CCNC(=O)c3cc4ncccn4n3)n2)CC1` [Compound P-76, N-(3-(4-(4-(3-amino-6-(2-hydroxyphenyl)pyridazin-4-yl)-1,4-diazepan-1-yl)pyrimidin-2-yl)prop-2-yn-1-yl)pyrazolo[1,5-a]pyrimidine-2-carboxamide], the DC50 in assay [1] and in assay [2] was 50 to 500 nM throughout. For the same compound, the “SMARCA2 % Degradation @ 1 μM” value in assay [1] (@ 1 μM) was “+++ (+++=>70%)”. Also, the inhibition at 1 µM in assay [2] (@ 1 μM) is > 70%.
`C[C@@H]1CCN(c2cc(-c3ccccc3O)nnc2N)CCN1c1ccnc(C#CCN2CC(F)C2)n1` [Compound P-230, o-{5-[(R)-4-{2-[3-(3-fluoro-1-azetidinyl)-1-propynyl]-4-pyrimidinyl}-5-methyl-1,4-diazepan-1-y1]-6-amino-3-pyridaziny1}phenol]: the DC50 in assay [1] and in assay [2] was 50 to 500 nM throughout. Besides, the “SMARCA2 % Degradation @ 1 μM” value in assay [1] (@ 1 μM) is on record as “++ (++=30-70%)”. Also, the inhibition at 1 µM in assay [2] (@ 1 μM) is < 30%.
For `Nc1nnc(-c2ccccc2O)cc1N1CCN(c2ccnc(C#CCNC(=O)c3ccn(CC(F)(F)F)n3)n2)CC1` [Compound P-9, N-[3-(4-{4-[3-amino-6-(2-hydroxyphenyl)pyridazin-4-yl]piperazin-1-yl}pyrimidin-2-yl)prop-2-yn-1-yl]-1-(2,2,2-trifluoroethyl)-1H-pyrazole-3-carboxamidc], the 50% degradation concentration (DC50) in assay [1] is 50 to 500 nM; in assay [2] it was < 50 nM. In addition, the “SMARCA2 % Degradation @ 1 μM” value in assay [1] (@ 1 μM) is recorded as “++ (++=30-70%)”. In addition, the inhibition at 1 µM in assay [2] (@ 1 μM) is 30 to 70%.
For `Nc1nnc(-c2ccccc2O)cc1N1C[C@@H]2C[C@H]1CN2c1ccnc(C#CCNC(=O)c2cc3ncccn3n2)n1` [Compound P-30, N-(3-(4-((1S,4S)-5-(3-amino-6-(2-hydroxyphenyl)pyridazin-4-yl)-2,5-diazabicyclo[2.2.1]heptan-2-yl)pyrimidin-2-yl)prop-2-yn-1-yl)pyrazolo[1,5-a]pyrimidine-2-carboxamide] the same measures were 500 to 5000 nM, 500 to 5000 nM, “++ (++=30-70%)” and 30 to 70%.
For `Nc1nnc(-c2ccccc2O)cc1N1CCN(c2ccnc(C#CCNC(=O)c3cc4ncccn4n3)n2)CC(F)C1` (stereo not drawn) [Compound P-44, N-(3-(4-(4-(3-amino-6-(2-hydroxyphenyl)pyridazin-4-yl)-6-fluoro-1,4-diazepan-1-yl)pyrimidin-2-yl)prop-2-yn-1-yl)pyrazolo[1,5-a]pyrimidine-2-carboxamide] the same measures were 500 to 5000 nM, 500 to 5000 nM, “++ (++=30-70%)” and 30 to 70%.
For `Nc1nnc(-c2ccccc2O)cc1N1CCN(c2ccnc(C#CCNC(=O)c3ccc4ccccc4n3)n2)CC1` [Compound P-64, N-(3-(4-(4-(3-amino-6-(2-hydroxyphenyl)pyridazin-4-yl)piperazin-1-yl)pyrimidin-2-yl)prop-2-yn-1-yl)quinoline-2-carboxamide], in that order: 50 to 500 nM, 50 to 500 nM, “++ (++=30-70%)” and 30 to 70%.
As for `Nc1nnc(-c2ccccc2O)cc1N1CCCN(c2ccnc(C#CCN3CC4CCC(C3)O4)n2)CC1` [Compound P-315, 0-{6-amino-5-[4-(2-{3-(8-oxa-3-azabicyclo[3.2.1]oct-3-yl)-1-propynyl}-4-pyrimidinyl)-1,4-diazepan-1-yl]-3-pyridazinyl} phenol], the figures for the DC50 in assay [1] and in assay [2] were 50 to 500 nM and 500 to 5000 nM, respectively. Moreover, the “SMARCA2 % Degradation @ 1 μM” value in assay [1] (@ 1 μM) was “++ (++=30-70%)”. In assay [2] (@ 1 μM), this compound had an inhibition at 1 µM of 30 to 70%.
Take `Nc1nnc(-c2ccccc2O)cc1N1CCCN(c2ccnc(C#CCN3CCCOCC3)n2)CC1` [Compound P-379, 0-[6-amino-5-(4-{2-[3-(1,4-oxazepan-4-yl)-1-propynyl]-4-pyrimidinyl}-1,4-diazepan-1-yl)-3-pyridazinyl]phenol]: the DC50 in assay [1] and in assay [2] was 50 to 500 nM throughout. The “SMARCA2 % Degradation @ 1 μM” value in assay [1] (@ 1 μM) was “+++ (+++=>70%)”. Moreover, in assay [2] (@ 1 μM), the inhibition at 1 µM was in the range of 30 to 70%.
As to `C[C@@H]1CCN(c2cc(-c3ccccc3O)nnc2N)CCN1c1ccnc(C#CCN2CCCCC2)n1` [Compound P-335, 0-(5-{(R)-5-methyl-4-[2-(3-piperidino-1-propynyl)-4-pyrimidinyl]-1,4-diazepan-1-y1}-6-amino-3-pyridazinyl)phenol], the DC50 in assay [1] and in assay [2] was < 50 nM in each case. For the same compound, the “SMARCA2 % Degradation @ 1 μM” value in assay [1] (@ 1 μM) is “++ (++=30-70%)”. In assay [2] (@ 1 μM), the inhibition at 1 µM fell in the range of 30 to 70%.
Consider `Nc1nnc(-c2ccccc2O)cc1N1CCN(c2ccnc(C#CCNC(=O)c3cc4ccccc4[nH]3)n2)CC1` [Compound P-73, N-(3-(4-(4-(3-amino-6-(2-hydroxyphenyl)pyridazin-4-yl)piperazin-1-yl)pyrimidin-2-yl)prop-2-yn-1-yl)-1H-indole-2-carboxamide], for which the DC50 in assay [1] and in assay [2] was 50 to 500 nM each time. In assay [1] (@ 1 μM), the “SMARCA2 % Degradation @ 1 μM” value is recorded as “++ (++=30-70%)”. Also, the inhibition at 1 µM in assay [2] (@ 1 μM) fell in the range of 30 to 70%.
With `NCC#Cc1nccc(N2CCC3(CCCN(c4cc(-c5ccccc5O)nnc4N)C3)CC2)n1` [Compound P-89, 2-(6-amino-5-(9-(2-(3-aminoprop-1-yn-1-yl)pyrimidin-4-yl)-2,9-diazaspiro[5.5]undecan-2-yl)pyridazin-3-yl)phenol], the DC50 in assay [1] and in assay [2] was 500 to 5000 nM in each case. The “SMARCA2 % Degradation @ 1 μM” value in assay [1] (@ 1 μM) is on record as “+ (+=<30%)”. For the same compound, the inhibition at 1 µM in assay [2] (@ 1 μM) was < 30%.
`Nc1nnc(-c2ccccc2O)cc1N1CCC2CCN(c3ccnc(C#CCNC(=O)c4cc5ncccn5n4)n3)C2C1` (stereo not drawn) [Compound P-37, N-(3-(4-(6-(3-amino-6-(2-hydroxyphenyl)pyridazin-4-yl)octahydro-1H-pyrrolo[2,3-c]pyridin-1-yl)pyrimidin-2-y1)prop-2-yn-1-yl)pyrazolo[1,5-a]pyrimidine-2-carboxamide]: the DC50 in assay [1] and in assay [2] was 50 to 500 nM in each case. Also, in assay [1] (@ 1 μM), the “SMARCA2 % Degradation @ 1 μM” value was “++ (++=30-70%)”. This compound returned an inhibition at 1 µM in assay [2] (@ 1 μM) of 30 to 70%.
Consider `Cc1cc(C(=O)NCC#Cc2nccc(N3CCN(c4cc(-c5ccccc5O)nnc4N)CC3)n2)no1` [Compound P-1, N-[3-(4-{4-[3-amino-6-(2-hydroxyphenyl)pyridazin-4-yl]piperazin-1-yl}pyrimidin-2-yl)prop-2-yn-1-yl]-5-methyl-1,2-oxazole-3-carboxamide], for which the DC50 in assay [1] and in assay [2] was 50 to 500 nM throughout. Further, the “SMARCA2 % Degradation @ 1 μM” value in assay [1] (@ 1 μM) is listed as “++ (++=30-70%)”. In assay [2] (@ 1 μM), the inhibition at 1 µM was 30 to 70%.
With `Cc1c(C(=O)NCC#Cc2nccc(N3CCN(c4cc(-c5ccccc5O)nnc4N)CC3)n2)oc2ccccc12` [Compound P-74, N-(3-(4-(4-(3-amino-6-(2-hydroxyphenyl)pyridazin-4-yl)piperazin-1-yl)pyrimidin-2-yl)prop-2-yn-1-yl)-3-methylbenzofuran-2-carboxamide], the DC50 in assay [1] and in assay [2] was 50 to 500 nM throughout. The “SMARCA2 % Degradation @ 1 μM” value in assay [1] (@ 1 μM) is “++ (++=30-70%)”. In assay [2] (@ 1 μM), the inhibition at 1 µM was 30 to 70%.
As to `CN(C)CC#Cc1nccc(N2CCC3(CC2)CCN(c2cc(-c4ccccc4O)nnc2N)C3)n1` [Compound P-344, 0-[6-amino-5-(8-{2-[3-(dimethylamino)-1-propynyl]-4-pyrimidinyl}-2,8-diaza-2-spiro[4.5]decyl)-3-pyridazinyl]phenol], the figures for the DC50 in assay [1] and in assay [2] were < 50 nM and > 5000 nM, respectively. Besides, the “SMARCA2 % Degradation @ 1 μM” value in assay [1] (@ 1 μM) is on record as “++ (++=30-70%)”.
`Nc1nnc(-c2ccccc2O)cc1N1CCCN(c2ccnc(C#Cc3cccc4nccn34)n2)CC1` [Compound P-306, 0-[5-(4-{2-[2-(1,3a-diaza-4-indenyl)ethynyl]-4-pyrimidinyl}-1,4-diazepan-1-yl)-6-amino-3-pyridazinyl]phenol]: the half-maximal degradation concentration (DC50) in assay [1] and in assay [2] was 500 to 5000 nM each time. The “SMARCA2 % Degradation @ 1 μM” value in assay [1] (@ 1 μM) was “??”. In assay [2] (@ 1 μM), the inhibition at 1 µM is < 30%.

For orientation: DC50 means the concentration giving 50% degradation. Usually inhibition stands for how much of the control response was suppressed. Read a low inhibition as a response near the control.
